Source: ChEMBL document CHEMBL1201862, “PubChem BioAssay data set” (2004)
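Each compound was tested at five concentrations against cells in 96-well plates for 48 hours. GI50: concentration for 50% inhibition of growth.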 Calls of active or inactive are those of the source. Cut-off read from the data, not from the text of the source: active = GI50 up to about 1.1 µM and inactive = higher.

Tests used:
Assay in all cases: NCI-60 cell line screen, 48 h
[1] = system: M14
[2] = system: MDA-MB-435
[3] = system: NCI/ADR-RES
[4] = system: SN12C
[5] = system: CCRF-CEM
[6] = system: DU-145
[7] = system: MOLT-4
[8] = system: SK-MEL-2
[9] = system: SF-295
[10] = system: NCI-H460
[11] = system: SW-620
[12] = system: KM12
[13] = system: HCC 2998
[14] = system: HCT-116
[15] = system: ACHN
[16] = system: UACC-62
[17] = system: COLO 205
[18] = system: A549
[19] = system: LOX IMVI

Row | SMILES | GI50 [1] | GI50 [2] | GI50 [3] | GI50 [4] | GI50 [5] | GI50 [6] | GI50 [7] | GI50 [8] | GI50 [9] | GI50 [10] | GI50 [11] | GI50 [12] | GI50 [13] | GI50 [14] | GI50 [15] | GI50 [16] | GI50 [17] | GI50 [18] | GI50 [19]
1 | CN(C)c1ccc(/C=C2\N=C(N/N=C/c3ccccc3)NC2=O)cc1 | 89.7 µM (inactive) | 33 µM (inactive) | 29.1 µM (inactive) | > 100 µM (inactive) | 35.2 µM (inactive) | 58.7 µM (inactive) | 26.8 µM (inactive) | > 100 µM (inactive) | 69.5 µM (inactive) | 49.9 µM (inactive) | 67.9 µM (inactive) | 52.6 µM (inactive) | 42.1 µM (inactive) | 83.6 µM (inactive) | > 100 µM (inactive) | 79.8 µM (inactive) | 47.1 µM (inactive) | 36.7 µM (inactive) | 
2 | Cc1c(C)c2c(c(N)c1C#N)C(=O)N(Nc1ccccc1)C2=O | > 100 µM (inactive) | 72.8 µM (inactive) | 52.4 µM (inactive) | > 100 µM (inactive) | 97.1 µM (inactive) | > 100 µM (inactive) | 92.7 µM (inactive) | 96.8 µM (inactive) | 34.1 µM (inactive) | 60.8 µM (inactive) | > 100 µM (inactive) | 36.1 µM (inactive) | > 100 µM (inactive) | > 100 µM (inactive) | 60.1 µM (inactive) | 51.4 µM (inactive) | > 100 µM (inactive) | 74.3 µM (inactive) | 3.51 µM (inactive)
3 | CCC(NC1=NCCO1)c1cccs1 (stereo unspecified) | 19 µM (inactive) | 14.5 µM (inactive) | 43.1 µM (inactive) |  | 7.36 µM (inactive) | 13.7 µM (inactive) | > 100 µM (inactive) | 15.5 µM (inactive) | 15.1 µM (inactive) | 15.7 µM (inactive) | 24.3 µM (inactive) | 18 µM (inactive) | 15.5 µM (inactive) | 14.1 µM (inactive) | 15.9 µM (inactive) | 16 µM (inactive) | 17.3 µM (inactive) | 14.1 µM (inactive) | 23.7 µM (inactive)
4 | NC(CCC(=O)O)C(=O)N1CCN(c2nc(N3CCCC3)c3nc(Cl)c(NCc4ccccc4)nc3n2)CC1 (stereo unspecified) | 10 µM (inactive) | 9.48 µM (inactive) | 20.8 µM (inactive) | 15.8 µM (inactive) | 7.19 µM (inactive) | 8.43 µM (inactive) | 7.53 µM (inactive) | 15.6 µM (inactive) | 11.6 µM (inactive) | 10.3 µM (inactive) | 18.2 µM (inactive) | 16.1 µM (inactive) | 11.4 µM (inactive) | 13.9 µM (inactive) | 15.1 µM (inactive) | 11.2 µM (inactive) | 10.7 µM (inactive) | 12.5 µM (inactive) | 14.6 µM (inactive)
5 | CCN(CC)c1ccc2cc(C(=O)Nc3ccccn3)c(=N)oc2c1 | > 100 µM (inactive) | > 100 µM (inactive) | 85.3 µM (inactive) | > 100 µM (inactive) | > 100 µM (inactive) | > 100 µM (inactive) | > 100 µM (inactive) | 25.5 µM (inactive) |  | > 100 µM (inactive) | > 100 µM (inactive) | > 100 µM (inactive) | > 100 µM (inactive) | 55.5 µM (inactive) | 26.9 µM (inactive) | 30.3 µM (inactive) | > 100 µM (inactive) | > 100 µM (inactive) | 71.1 µM (inactive)
6 | Clc1nc2c(-c3cccs3)ncnc2n1Cc1ccccc1 | 66.8 µM (inactive) | 49.2 µM (inactive) | 46.3 µM (inactive) | 35.8 µM (inactive) | > 68.1 µM (inactive) | 2.49 µM (inactive) | 37.5 µM (inactive) | 63.2 µM (inactive) | 63.5 µM (inactive) | 37.9 µM (inactive) | > 30.3 µM (inactive) | 15.9 µM (inactive) | 3.21 µM (inactive) | 45.2 µM (inactive) | 2 µM (inactive) | 72.3 µM (inactive) | 34.7 µM (inactive) | 32.4 µM (inactive) | > 86.9 µM (inactive)
7 | C(=N\c1ccc(-c2nc3ccccc3[nH]2)cc1)/c1ccco1 | > 100 µM (inactive) | 48.4 µM (inactive) | 84.9 µM (inactive) | > 100 µM (inactive) | 16.5 µM (inactive) | > 100 µM (inactive) | 29.3 µM (inactive) | 67.8 µM (inactive) |  |  | 89.1 µM (inactive) | 48.6 µM (inactive) | 76.4 µM (inactive) | 57.3 µM (inactive) | > 100 µM (inactive) | 89.7 µM (inactive) | 43.9 µM (inactive) | > 100 µM (inactive) | 67 µM (inactive)
8 | [N-]=[N+]=C1CNC(=O)NC1=O | 58.6 µM (inactive) | 95.7 µM (inactive) | > 100 µM (inactive) | > 100 µM (inactive) | 24.3 µM (inactive) | > 100 µM (inactive) | 42.5 µM (inactive) | > 100 µM (inactive) | > 100 µM (inactive) | > 100 µM (inactive) | > 100 µM (inactive) | > 100 µM (inactive) | > 100 µM (inactive) | > 100 µM (inactive) | 69.3 µM (inactive) | > 100 µM (inactive) | > 100 µM (inactive) | > 100 µM (inactive) | 60.1 µM (inactive)
9 | Cc1ccc2c(c1)[nH]c(=S)n2/C=C1\C(=O)Oc2ccccc2C1=O | 39.8 µM (inactive) | 61.8 µM (inactive) | 56.2 µM (inactive) | 59.4 µM (inactive) | 34.8 µM (inactive) | 41.3 µM (inactive) | 38.2 µM (inactive) | > 100 µM (inactive) | > 100 µM (inactive) | 44.1 µM (inactive) | 52.6 µM (inactive) | 84.5 µM (inactive) | > 100 µM (inactive) | 44.9 µM (inactive) | 36 µM (inactive) | 13.1 µM (inactive) | 99.3 µM (inactive) | 77.4 µM (inactive) | 70 µM (inactive)
10 | O=C(CC(C(=O)c1ccc(F)cc1)c1ccsc1)c1cccs1 (stereo unspecified) | > 100 µM (inactive) | > 100 µM (inactive) | 96.4 µM (inactive) | > 100 µM (inactive) | 68.9 µM (inactive) | > 100 µM (inactive) | 29.6 µM (inactive) | > 100 µM (inactive) | 67.6 µM (inactive) | 69.7 µM (inactive) | > 100 µM (inactive) | 44.8 µM (inactive) | > 100 µM (inactive) | 60.5 µM (inactive) | > 100 µM (inactive) | > 100 µM (inactive) | > 100 µM (inactive) | 74.8 µM (inactive) | 
11 | Cc1ccc(-c2cc(-c3ccccc3)nc(N)n2)c(O)c1 | > 100 µM (inactive) | 2.86 µM (inactive) | > 100 µM (inactive) | > 100 µM (inactive) | 3.4 µM (inactive) | > 79.4 µM (inactive) | 3.52 µM (inactive) | > 28.9 µM (inactive) | 39.4 µM (inactive) | > 27 µM (inactive) | > 22.7 µM (inactive) | 7.46 µM (inactive) | > 100 µM (inactive) | 5.48 µM (inactive) | > 100 µM (inactive) | > 78.2 µM (inactive) | > 100 µM (inactive) | > 90.4 µM (inactive) | 
12 | COC(=O)n1c(=O)nc2c3c(ncn21)Oc1c(c(-c2ccccc2)nn1-c1ccccc1)C3c1ccc(Cl)cc1 (stereo unspecified) | 1.44 µM (inactive) | 1.66 µM (inactive) | 1.46 µM (inactive) | 1.73 µM (inactive) | 1.5 µM (inactive) | 1.63 µM (inactive) |  | 1.7 µM (inactive) | 1.67 µM (inactive) | 1.65 µM (inactive) | 1.69 µM (inactive) | 1.37 µM (inactive) | 1.42 µM (inactive) | 1.01 µM (active) | 1.82 µM (inactive) | 1.95 µM (inactive) | 1.45 µM (inactive) | 1.77 µM (inactive) | 1.48 µM (inactive)
13 | COc1cc2c(cc1C)NC(=O)/C2=C\c1cccnc1 | 12.9 µM (inactive) | 13.7 µM (inactive) | 14.1 µM (inactive) | 15.7 µM (inactive) | 20.8 µM (inactive) | 17.1 µM (inactive) | 7.98 µM (inactive) | 18.7 µM (inactive) | 14.7 µM (inactive) | 22.6 µM (inactive) | 26.8 µM (inactive) | 13.6 µM (inactive) | 10 µM (inactive) | 15.1 µM (inactive) | 26.9 µM (inactive) |  | 16.5 µM (inactive) | 21.3 µM (inactive) | 18.7 µM (inactive)
14 | COc1ccc2c(c1)/c(=C/C#N)c1c3ccccc3[n+](C)n21 | 6.87 µM (inactive) | 6.87 µM (inactive) | 18.4 µM (inactive) | 7 µM (inactive) | 2.04 µM (inactive) | 1.71 µM (inactive) | 3.3 µM (inactive) | 14.5 µM (inactive) | 7.69 µM (inactive) | 7.23 µM (inactive) | 4.13 µM (inactive) | 6.04 µM (inactive) | 1.44 µM (inactive) | 3.13 µM (inactive) | 9.38 µM (inactive) | 13.6 µM (inactive) | 2.34 µM (inactive) | 3.39 µM (inactive) | 5.97 µM (inactive)
15 | COC(=O)C(CNC(=O)/C=C/c1ccc(OC)c(OC)c1)NC(=O)/C=C/c1ccc(OC)c(OC)c1 (stereo unspecified) | > 100 µM (inactive) | > 100 µM (inactive) | > 100 µM (inactive) | > 100 µM (inactive) | > 100 µM (inactive) | > 100 µM (inactive) | 77.1 µM (inactive) | > 100 µM (inactive) | > 100 µM (inactive) | 45.2 µM (inactive) | > 100 µM (inactive) | > 100 µM (inactive) | 50 µM (inactive) | > 100 µM (inactive) | > 100 µM (inactive) | > 100 µM (inactive) | > 100 µM (inactive) | > 100 µM (inactive) | > 100 µM (inactive)
